Measurements as given in patent US9243039B2, “Bipartite inhibitors of bacterial RNA polymerase: Sal-target-inhibitor/nucleoside-analog-inhibitor conjugates” (priority 2012, dated 2016).
≈ marks a conversion by molar mass, not a printed value. *1 amine or outer side, *2 acyl side, *3 side chain or, on linkers, in order; H or OH if unused. Where a SMILES comes first, the peptide text is derived from it. Bridges are numbered along the chain shown (N, C = ends). [ ]: non-standard residue; d: D form. The star is where a group is joined. X4 = C[C@@H](Oc1ccc([C@H](N[*:1])C(=O)[*:2])cc1)[C@](O)(/C=C/C(=O)[*:3])CNCCCCCCNC(=O)OC(C)(C)C; X5 = C[C@@H](Oc1ccc([C@H](N[*:1])C(=O)[*:2])cc1)[C@](O)(/C=C/C(=O)[*:3])CNCCCNC(=O)OC(C)(C)C; X2 = CCCCOC[C@@](O)(/C=C/C(=O)[*:3])[C@@H](C)Oc1ccc([C@H](N[*:1])C(=O)[*:2])cc1; X1 = C[C@@H](Oc1ccc([C@H](N[*:1])C(=O)[*:2])cc1)[C@](O)(/C=C/C(=O)[*:3])CBr; Pentanoyl(2R-Me,3R-OH,4-Me) = CC(C)[C@@H](O)[C@@H](C)C(=O)*; d(aIle) = CC[C@H](C)[C@@H](N)C(=O)O; d(aThr) = C[C@@H](O)[C@@H](N)C(=O)O; NMeF = CN[C@@H](Cc1ccccc1)C(=O)O

Legend:
Sal-resistant mutants = conditions: Ebright et al., WO/2012/129173; cited from earlier work
human RNAP I/II/III = assay: Radiochemical assay with human RNAP I, II and III (HeLaScribe nuclear extract); format: biochemical
Experimental: Radiochemical assays with human RNAP I, II, and III were performed essentially as described [Sawadogo and Roeder, Cell 43:165-75, 1985]. Reaction mixtures contained (20 μl): 0-100 μM test compound, 8 U HeLaScribe Nuclear Extract (Promega, Inc.), 1 μg human placental DNA (Sigma-Aldrich), 400 μM ATP, 400 μM [α^32P]UTP (0.11 Bq/fmol), 400 μM CTP, 400 μM GTP, 50 mM Tris-HCl, pH 8.0, 7 mM HEPES-NaOH, 70 mM (NH4)2SO4, 50 mM KCl, 12 mM MgCl2, 5 mM DTT, 0.1 mM EDTA, 0.08 mM phenylmethylsulfonyl fluoride, and 16% glycerol. Reaction components other than DNA and NTPs were pre-incubated 10 min at 30° C., DNA was added and reaction mixtures were incubated 15 min at 30° C., NTPs were added and reaction mixtures were incubated 60 min at 30° C. Reaction mixtures were spotted on DE81 filter discs (Whatman, Inc.; pre-wetted with water) and incubated 1 min at room temperature. Filters were washed with 3×3 ml Na2HPO4, 2×3 ml water, and 3 ml ethanol, using a filter manifold (Hoefer, Inc.). Filters were placed in scintillation vials containing 10 ml Scintiverse BD Cocktail (Thermo Fisher, Inc.), and radioactivity was quantified by scintillation counting (LS6500; Beckman-Coulter, Inc.).
(§1) Half-maximal inhibitory concentrations (IC50s) were calculated by non-linear regression in SigmaPlot (SPSS, Inc.).

[1] = system: Escherichia coli D21f2toIC; assay: Antibacterial activity, broth microdilution, Escherichia coli D21f2tolC; format: cell-based; conditions: for MIC50: Escherichia coli, D21F2TOIC, read-out: MIC50 Escherichia coli D21f2toIC
Source text: (§2) Antibacterial activity was quantified using broth microdilution [Clinical and Laboratory Standards Institute (CLSUNCCLS), Methods for Dilution Antimicrobial Susceptibility Tests for Bacteria That Grow Aerobically; Approved Standard, Eighth Edition. CLIS Document M07-A8 (CLIS, Wayne Pa.), 2009]. Assays with Enterobacter cloacae ATCC 13047, Pseudomonas aeruginosa ATCC10145, and Escherichia coli D21f2to1C, employed a starting cell density of 2-5×10^5 cfu/ml, Mueller Hinton II cation adjusted broth (BD Biosciences, Inc.), and an air atmosphere. Assays with Haemophilus influenzae ATCC49247 and Neisseria gonorrhoeae ATCC 19424 employed a starting cell density of 2-5×10^5 cfu/ml, Haemophilus Test Medium broth (Barry et al., 1993) and a 5% CO2/95% air atmosphere. MIC50 was defined as the minimal concentration resulting in ≧50% inhibition of bacterial growth.

Escherichia coli RNAP = Escherichia coli RNAP (Escherichia coli, UniProt P0A8T7+P0A8V2); assay: Fluorescence-detected RNAP assay, Escherichia coli RNAP; format: biochemical; conditions: for IC50: fluorescent-detected RNAP assays
Experimental: Fluorescence-detected RNAP assays with Escherichia coli RNAP were performed by a modification of the procedure of Kuhlman et al., 2004 [Kuhlman et al., Anal. Biochem. 324:183-190, 2004]. Reaction mixtures contained (20 μl): […] test compound, 75 nM Escherichia coli RNAP […] holoenzyme, 20 nM 384 by DNA fragment containing the bacteriophage T4 N25 promoter, 100 μM ATP, 100 μM GTP, 100 μM UTP, 100 μM CTP, 50 mM Tris-HCl, pH 8.0, 100 mM KCl, 10 mM MgCl2, 1 mM DTT, 10 μg/ml bovine serum albumin, and 5.5% glycerol. Reaction components other than DNA and NTPs were pre-incubated for 10 min at 37° C. Reactions were carried out by addition of DNA and incubation for 5 min at 37° C., followed by addition of NTPs and incubation for 60 min at 37° C. DNA was removed by addition of 1 μl 5 mM CaCl2 and 2 U DNaseI (Ambion, Inc.), followed by incubation for 90 min at 37° C. RNA was quantified by addition of 100 μl RiboGreen RNA Quantitation Reagent (Invitrogen, Inc.; 1:500 dilution in Tris-HCl, pH 8.0, 1 mM EDTA), followed by incubation for 10 min at 25° C., followed by measurement of fluorescence intensity [excitation wavelength=485 nm and emission wavelength=535 nm; QuantaMaster QM1 spectrofluorometer (PTI, Inc.)].
as §1

[2] = system: Enterobacter cloacae ATCC 13047; assay: Antibacterial activity, broth microdilution, Enterobacter cloacae; format: cell-based; conditions: Enterobacter cloacae, ATCC13047; minimal concentration resulting in ≧50% inhibition of bacterial growth
Source text: as §2

Vero E6 ATCC CRL1586 = assay: Cytotoxicity to mammalian cells in culture (CellTiter96); format: cell-based; conditions: mammalian cells in culture
Source text: MICs for mammalian cells (Vero E6) in culture were quantified using CellTiter96 assay (Promega. Inc.; procedures as specified by the manufacturer). Screening data for SalA and SalB (compounds 1 and 2) and representative compounds of this invention (compounds 3-9) are presented in Tables 1-2: […]

Chain of Escherichia coli RNAP (P0A800 whole entry, the tested form may be a part): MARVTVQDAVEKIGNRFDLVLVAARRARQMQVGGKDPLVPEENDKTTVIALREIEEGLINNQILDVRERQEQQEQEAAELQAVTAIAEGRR
Chain of Escherichia coli RNAP (P00579 whole entry, further chain, the tested form may be a part): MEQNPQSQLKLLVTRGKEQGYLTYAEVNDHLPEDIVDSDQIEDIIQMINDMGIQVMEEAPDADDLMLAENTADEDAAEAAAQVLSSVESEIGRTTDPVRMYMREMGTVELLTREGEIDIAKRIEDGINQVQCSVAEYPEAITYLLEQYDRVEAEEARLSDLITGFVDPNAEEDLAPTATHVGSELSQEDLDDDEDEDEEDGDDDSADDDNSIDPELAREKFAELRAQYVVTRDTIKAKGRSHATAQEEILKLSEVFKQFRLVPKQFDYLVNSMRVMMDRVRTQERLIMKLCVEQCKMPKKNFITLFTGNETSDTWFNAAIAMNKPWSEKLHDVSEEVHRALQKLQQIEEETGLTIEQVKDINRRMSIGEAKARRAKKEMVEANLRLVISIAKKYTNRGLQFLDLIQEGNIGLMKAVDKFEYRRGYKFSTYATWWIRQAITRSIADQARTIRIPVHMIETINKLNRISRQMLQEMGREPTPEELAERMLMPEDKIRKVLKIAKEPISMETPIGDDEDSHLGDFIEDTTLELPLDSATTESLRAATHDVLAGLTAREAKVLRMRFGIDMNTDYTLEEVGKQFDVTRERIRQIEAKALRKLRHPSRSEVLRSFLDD
Chain of Escherichia coli RNAP (P0A8V2 whole entry, the tested form may be a part): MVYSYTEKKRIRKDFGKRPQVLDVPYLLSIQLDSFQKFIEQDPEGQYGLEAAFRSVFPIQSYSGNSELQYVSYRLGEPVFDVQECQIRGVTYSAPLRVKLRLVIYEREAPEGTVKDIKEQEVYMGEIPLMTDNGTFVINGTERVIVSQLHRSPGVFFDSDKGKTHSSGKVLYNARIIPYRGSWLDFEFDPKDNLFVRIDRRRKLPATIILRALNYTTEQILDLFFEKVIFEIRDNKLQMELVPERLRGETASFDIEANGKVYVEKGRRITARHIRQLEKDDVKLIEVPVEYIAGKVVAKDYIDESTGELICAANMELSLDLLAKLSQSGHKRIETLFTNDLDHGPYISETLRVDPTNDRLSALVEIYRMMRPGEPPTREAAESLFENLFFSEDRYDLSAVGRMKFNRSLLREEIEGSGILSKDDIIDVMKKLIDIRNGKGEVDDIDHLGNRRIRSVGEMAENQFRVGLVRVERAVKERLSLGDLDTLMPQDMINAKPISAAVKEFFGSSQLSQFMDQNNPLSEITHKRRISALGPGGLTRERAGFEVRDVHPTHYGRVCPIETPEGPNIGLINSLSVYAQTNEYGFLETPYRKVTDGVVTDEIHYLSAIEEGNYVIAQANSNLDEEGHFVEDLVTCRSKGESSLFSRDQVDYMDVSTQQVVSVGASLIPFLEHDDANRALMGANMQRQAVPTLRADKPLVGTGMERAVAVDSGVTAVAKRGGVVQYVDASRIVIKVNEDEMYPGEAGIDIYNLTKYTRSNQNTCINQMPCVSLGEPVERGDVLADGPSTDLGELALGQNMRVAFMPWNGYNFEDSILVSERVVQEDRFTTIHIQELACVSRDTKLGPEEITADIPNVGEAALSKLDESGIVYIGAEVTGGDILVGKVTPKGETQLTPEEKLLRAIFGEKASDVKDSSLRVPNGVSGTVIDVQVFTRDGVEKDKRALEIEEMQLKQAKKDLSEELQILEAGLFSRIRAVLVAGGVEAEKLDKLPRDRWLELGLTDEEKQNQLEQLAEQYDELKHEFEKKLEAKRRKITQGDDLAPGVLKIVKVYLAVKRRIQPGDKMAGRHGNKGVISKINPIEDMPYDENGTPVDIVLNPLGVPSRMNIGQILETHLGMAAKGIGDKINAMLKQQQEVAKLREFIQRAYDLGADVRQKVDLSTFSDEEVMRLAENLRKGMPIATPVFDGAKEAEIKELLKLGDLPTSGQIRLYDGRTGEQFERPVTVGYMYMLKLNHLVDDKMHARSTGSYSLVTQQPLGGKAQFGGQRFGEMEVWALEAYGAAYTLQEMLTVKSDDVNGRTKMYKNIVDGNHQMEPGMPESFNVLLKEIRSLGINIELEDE
Chain of Escherichia coli RNAP (P0A8T7 whole entry, the tested form may be a part): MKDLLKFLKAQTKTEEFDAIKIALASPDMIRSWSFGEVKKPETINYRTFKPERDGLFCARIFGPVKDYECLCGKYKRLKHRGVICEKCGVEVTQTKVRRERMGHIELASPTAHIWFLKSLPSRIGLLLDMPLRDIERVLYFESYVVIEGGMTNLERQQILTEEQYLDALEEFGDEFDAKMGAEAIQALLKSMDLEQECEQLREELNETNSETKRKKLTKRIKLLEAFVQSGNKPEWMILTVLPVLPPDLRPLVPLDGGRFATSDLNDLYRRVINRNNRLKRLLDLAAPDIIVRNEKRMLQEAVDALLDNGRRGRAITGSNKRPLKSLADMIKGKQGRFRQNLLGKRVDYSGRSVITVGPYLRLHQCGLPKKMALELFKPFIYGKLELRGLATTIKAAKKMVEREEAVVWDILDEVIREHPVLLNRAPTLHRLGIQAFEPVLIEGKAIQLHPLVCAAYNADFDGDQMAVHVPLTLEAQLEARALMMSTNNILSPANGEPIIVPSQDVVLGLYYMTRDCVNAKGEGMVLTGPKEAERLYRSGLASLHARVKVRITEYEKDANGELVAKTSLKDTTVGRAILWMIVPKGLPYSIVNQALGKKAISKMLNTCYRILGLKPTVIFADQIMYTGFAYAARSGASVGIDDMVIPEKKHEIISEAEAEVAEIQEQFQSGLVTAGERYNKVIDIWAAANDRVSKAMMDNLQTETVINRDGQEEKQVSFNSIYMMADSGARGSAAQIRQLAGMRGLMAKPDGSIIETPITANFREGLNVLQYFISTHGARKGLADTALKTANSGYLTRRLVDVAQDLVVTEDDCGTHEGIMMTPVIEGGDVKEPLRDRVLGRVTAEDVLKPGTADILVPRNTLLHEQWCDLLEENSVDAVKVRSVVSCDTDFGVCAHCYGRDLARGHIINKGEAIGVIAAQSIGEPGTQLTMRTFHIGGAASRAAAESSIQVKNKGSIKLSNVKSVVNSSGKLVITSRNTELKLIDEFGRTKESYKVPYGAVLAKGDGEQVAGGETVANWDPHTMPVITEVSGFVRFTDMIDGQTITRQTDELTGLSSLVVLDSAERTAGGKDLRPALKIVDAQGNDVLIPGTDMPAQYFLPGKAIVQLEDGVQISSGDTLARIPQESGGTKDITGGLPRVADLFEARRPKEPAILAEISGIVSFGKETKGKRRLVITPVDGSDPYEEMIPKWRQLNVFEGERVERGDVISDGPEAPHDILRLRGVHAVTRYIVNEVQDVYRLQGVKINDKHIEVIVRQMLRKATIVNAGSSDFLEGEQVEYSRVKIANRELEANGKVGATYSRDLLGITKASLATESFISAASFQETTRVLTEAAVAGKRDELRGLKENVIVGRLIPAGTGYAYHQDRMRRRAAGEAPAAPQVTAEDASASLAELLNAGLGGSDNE
Chain of Escherichia coli RNAP (P0A7Z4 whole entry, further chain, the tested form may be a part): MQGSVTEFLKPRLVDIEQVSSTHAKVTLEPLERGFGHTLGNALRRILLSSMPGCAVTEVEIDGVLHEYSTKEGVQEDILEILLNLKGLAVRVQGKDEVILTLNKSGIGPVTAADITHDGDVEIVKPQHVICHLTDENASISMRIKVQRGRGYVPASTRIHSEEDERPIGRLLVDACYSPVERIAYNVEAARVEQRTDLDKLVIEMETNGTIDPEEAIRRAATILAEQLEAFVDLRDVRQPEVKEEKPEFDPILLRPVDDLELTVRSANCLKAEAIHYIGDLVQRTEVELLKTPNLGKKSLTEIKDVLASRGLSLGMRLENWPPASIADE

ONC(=Nc1ccccc1)c1cccc(C(F)(F)F)c1 [CBR703]
cross-resistance of Sal-resistant mutants to the compound (Sal-resistant mutants): not cross-resistant

CC[C@H](C)[C@H]1NC(=O)[C@@H](NC(=O)[C@H](C)[C@H](O)C(C)C)[C@@H](C)OC(=O)[C@@H]2COC(=O)CNC(=O)/C=C/[C@](O)(CBr)[C@@H](C)Oc3ccc(cc3)[C@H](NC1=O)C(=O)N(C)[C@@H](Cc1ccccc1)C(=O)N[C@H]([C@@H](C)O)C(=O)N2 [Sal-Br (3)] ({Pentanoyl(2R-Me,3R-OH,4-Me)}-T[d(aIle)][X1][NMeF][d(aThr)]S; ester 1-C; linker 3-6 via G)
IC50 (human RNAP I/II/III): > 100 µM
MIC50 [1]: 0.049 µg/mL (≈ 0.0445 µM)
antibacterial activity ([1]; in words, refers to Table 2): essentially full
IC50 (Escherichia coli RNAP): 3 µM
RNAP-inhibitory activity (Escherichia coli RNAP; in words, refers to Table 1): essentially full
MIC50 [2]: 1.56 µg/mL (≈ 1.42 µM)
MIC50 Vero E6 ATCC CRL1586 (Vero E6 ATCC CRL1586): >100 µg/mL

CC[C@H](C)[C@H]1NC(=O)[C@@H](NC(=O)[C@H](C)[C@H](O)C(C)C)[C@@H](C)OC(=O)[C@@H]2COC(=O)CNC(=O)/C=C/[C@](O)(CNCCCNC(=O)OC(C)(C)C)[C@@H](C)Oc3ccc(cc3)[C@H](NC1=O)C(=O)N(C)[C@@H](Cc1ccccc1)C(=O)N[C@H]([C@@H](C)O)C(=O)N2 [Sal-NH(CH2)3NHBoc (7)] ({Pentanoyl(2R-Me,3R-OH,4-Me)}-T[d(aIle)][X5][NMeF][d(aThr)]S; ester 1-C; linker 3-6 via G)
MIC50 [1]: 1.56 µg/mL (≈ 1.31 µM)
IC50 (Escherichia coli RNAP): 0.6 µM
MIC50 [2]: 100 µg/mL (≈ 83.7 µM)

CC[C@H](C)[C@H]1NC(=O)[C@@H](NC(=O)[C@H](C)[C@H](O)C(C)C)[C@@H](C)OC(=O)[C@@H]2COC(=O)CNC(=O)/C=C/[C@](O)(CNCCCCCCNC(=O)OC(C)(C)C)[C@@H](C)Oc3ccc(cc3)[C@H](NC1=O)C(=O)N(C)[C@@H](Cc1ccccc1)C(=O)N[C@H]([C@@H](C)O)C(=O)N2 [Sal-NH(CH2)6NHBoc (9)] ({Pentanoyl(2R-Me,3R-OH,4-Me)}-T[d(aIle)][X4][NMeF][d(aThr)]S; ester 1-C; linker 3-6 via G)
MIC50 [1]: 0.78 µg/mL (≈ 0.631 µM)
IC50 (Escherichia coli RNAP): 1 µM
MIC50 [2]: 25 µg/mL (≈ 20.2 µM)

CCCCOC[C@@]1(O)/C=C/C(=O)NCC(=O)OC[C@@H]2NC(=O)[C@@H]([C@@H](C)O)NC(=O)[C@H](Cc3ccccc3)N(C)C(=O)[C@@H](NC(=O)[C@@H]([C@@H](C)CC)NC(=O)[C@@H](NC(=O)[C@H](C)[C@H](O)C(C)C)[C@@H](C)OC2=O)c2ccc(cc2)O[C@@H]1C [Sal-OBu A (5A)] ({Pentanoyl(2R-Me,3R-OH,4-Me)}-T[d(aIle)][X2][NMeF][d(aThr)]S; ester 1-C; linker 3-6 via G)
MIC50 [1]: 1.56 µg/mL (≈ 1.43 µM)
IC50 (Escherichia coli RNAP): 6 µM
MIC50 [2]: 12.5 µg/mL (≈ 11.4 µM)
